In article PMC9785397, “Exploiting Conserved Quorum Sensing Signals in Streptococcus mutans and Streptococcus pneumoniae” (Microorganisms, 2022):

Assays:
[1] = system: S. mutans bacteriocin production against S. mitis; experiment: Bacteriocin overlay assay, S. mutans spotted on S. mitis; assay type: cell-based, Streptococcus mutans; details: CSP1 20 μM alone vs vehicle, 16 h, 37 °C, microaerophilic
Protocol: (§1) During the formation of complex biofilm such as dental plaque, the ability of S. mutans to compete with other commensal species determines the success of the cariogenesis process. S. mutans uses antibacterial peptides, namely, bacteriocins, to overcome and subvert the composition of dental microbiota. We investigated the production of bacteriocins using the overlay assay. Overnight cultures of S. mitis, S. oralis, S. sanguinis, P. aeruginosa, F. nucleatum, or P. gingivalis were diluted 1:100 in BHI or TS broth and incubated at 37 °C until they reached an OD620 of 0.3. Cultures were added with agar (BD Difco^TM Agar) at the final concentration of 1.5% w/v and transferred in plates. Overnight cultures of S. mutans were diluted 1:100 in BHI and added with peptides (20 μM) or the vehicle with or without CSP1. Culture media were supplemented with agar to reach the final concentration of 0.7% w/v. The solutions were spotted on the surface of agar plates prepared as described above. The plates were kept on the benchtop for 30 min, allowing the agar containing S. mutans to solidify, and then incubated at 37 °C for 16 h under microaerophilic or anaerobic conditions, as required.
(§2) Spots (10 for each experimental group) were acquired and analyzed using NIH Image J software (version 1.53t August 2022, https://imagej.nih.gov/ij/index.html; accessed on 7 September 2022). The appearance of a clear area on the plate (bacterial growth inhibition) was evaluated as indicative of bacteriocin activity. The diameters of the area were measured in a blinded fashion.

[2] = system: S. mutans bacteriocin production against F. nucleatum; experiment: Bacteriocin overlay assay, S. mutans spotted on F. nucleatum; assay type: cell-based, Streptococcus mutans; details: CSP1 20 μM, 16 h, 37 °C, anaerobic
Protocol: as §1, with “The plates were kept on the benchtop for 30 min, allowing the agar containing S. mutans to solidify, and then incubated at 37 °C for 16 h under microaerophilic or anaerobic conditions, as required.” left out
as §2

[3] = system: comE gene; experiment: qRT-PCR, comE gene expression; assay type: cell-based, Streptococcus mutans; details: CSP1 20 μM, planktonic, 8 h, qPCR
Protocol: S. mutans was cultured in BHI supplemented with peptides or the vehicle. Cultures were centrifuged, and total RNA was isolated and purified from the bacterial pellets using the GRS Total RNA Kit—Bacteria (GK16.0100; GRISP Research Solution, Porto, Portugal), following the manufacturer’s instructions. Purified RNA was subjected to DNase I treatment to remove contaminating DNA. The RNA yield and purity were assessed by measuring the absorbance, and only samples with a ratio of 260/280 nm in the 1.8–2 range were used. cDNA was generated using the cDNA RT kit with an RNAse inhibitor (Applied Biosystems; Monza, Milan). Quantitative PCR (qRT-PCR) was performed using SYBR green mixture (iScript One Step RT-PCR kit; Bio-Rad, Segrate, Milan) to determine the transcript levels of genes using the oligonucleotides listed in Table 3. The gyrA gene served as the housekeeping gene.

[4] = system: P. gingivalis; experiment: microbe, parasite or virus in culture; assay type: cell-based, Porphyromonas gingivalis; details: peptides 0–50 μM, 16 h, 37 °C, anaerobic, A620 nm, three separate experiments
Excerpt: Streptococcus mutans Clarke (strain designation NCTC 10449), Pseudomonas aeruginosa (Schroeter) Migula (strain designation PAO1), Fusobacterium nucleatum, subspecies nucleatum (strain VPI 4355), and Porphyromonas gingivalis (strain 2561) were purchased from ATCC (LGC Standards Srl, Milan, Italy). Streptococcus mitis, Streptococcus oralis, and Streptococcus sanguinis were obtained from clinical isolates and characterized by morphological, biochemical, and molecular typing. S. mutans, S. mitis, S. oralis, and S. sanguinis were maintained in Brain Heart Infusion (BHI) broth or agar under microaerophilic conditions. P. aeruginosa was maintained in trypticase soy (TS) agar or broth. F. nucleatum was maintained in TS agar or broth with defibrinated sheep blood under anaerobic conditions. P. gingivalis was maintained in ATCC Medium 2722 supplemented with TS broth or agar under anaerobic conditions. Before the experiments, bacterial cultures were inoculated in fresh media (dilution 1:100) and grown for 16 h at 37 °C.
The antimicrobial activities of the tested peptides were assessed through the determination of the minimum inhibitory concentration (MIC) standardized by the Clinical and Laboratory Standards Institute. Bacterial inocula were diluted in 10 mL of MHB […]. The concentration of the bacteria was adjusted to 0.5 McFarland standard, and the bacteria were dispensed in 96-well microtiter plates (final bacterial concentration: 1 × 10^4 CFU/well). Peptides were dissolved in sterile water (stock concentration: 2 mM) and added at final concentrations ranging from 0 to 50 µM. Plates were incubated at 37 °C for 16 h. At the end of incubation, bacterial growth was recorded using a microplate reader (Varioskan Lux Reader; Thermo Fisher Scientific, Milan, Italy) by quantifying the adsorption at 620 nm. Cultures were then opportunely diluted and seeded on agar plates. Bacterial cultures inoculated with the highest final concentration of the vehicle (sterile water) or chlorhexidine hydrochloride salt (CHX, concentration range: 0.05 to 500 μg/mL; Merck, Milan, Italy) were included as controls in each test. Experiments were performed in triplicate.

SMILES: CC[C@H](C)[C@H](NC(=O)[C@H](Cc1ccccc1)NC(=O)[C@H](CC(=O)O)NC(=O)[C@H](CCCNC(=N)N)NC(=O)[C@H](Cc1ccccc1)NC(=O)[C@H](Cc1ccccc1)NC(=O)[C@H](CCCCN)NC(=O)[C@H](CO)NC(=O)[C@H](CC(C)C)NC(=O)[C@H](CCCNC(=N)N)NC(=O)[C@H](CCSC)NC(=O)[C@@H](N)CCC(=O)O)C(=O)N[C@@H](CC(C)C)C(=O)N[C@@H](CCC(N)=O)C(=O)N[C@@H](CCCNC(=N)N)C(=O)N[C@@H](CCCCN)C(=O)N[C@@H](CCCCN)C(=O)O [CSP1]
- Growth inhibition of co-cultured S. mitis by S. mutans stimulated with peptide (diameter of clear area) [1]: significantly inhibited the growth
- Growth inhibition of F. nucleatum by S. mutans stimulated with peptide [2]: inhibited the growth
- Expression of comE in S. mutans [3]: increased the expression
- Minimum inhibitory concentration (MIC), P. gingivalis [4]: >50 µM
